Assay [1] deals with T1, human COX-2 (Homo sapiens, UniProt P35354).
T1 construct: expressed in transfected cells; host or cells: COS cells, stably transfected
T1 sequence (P35354 18-604): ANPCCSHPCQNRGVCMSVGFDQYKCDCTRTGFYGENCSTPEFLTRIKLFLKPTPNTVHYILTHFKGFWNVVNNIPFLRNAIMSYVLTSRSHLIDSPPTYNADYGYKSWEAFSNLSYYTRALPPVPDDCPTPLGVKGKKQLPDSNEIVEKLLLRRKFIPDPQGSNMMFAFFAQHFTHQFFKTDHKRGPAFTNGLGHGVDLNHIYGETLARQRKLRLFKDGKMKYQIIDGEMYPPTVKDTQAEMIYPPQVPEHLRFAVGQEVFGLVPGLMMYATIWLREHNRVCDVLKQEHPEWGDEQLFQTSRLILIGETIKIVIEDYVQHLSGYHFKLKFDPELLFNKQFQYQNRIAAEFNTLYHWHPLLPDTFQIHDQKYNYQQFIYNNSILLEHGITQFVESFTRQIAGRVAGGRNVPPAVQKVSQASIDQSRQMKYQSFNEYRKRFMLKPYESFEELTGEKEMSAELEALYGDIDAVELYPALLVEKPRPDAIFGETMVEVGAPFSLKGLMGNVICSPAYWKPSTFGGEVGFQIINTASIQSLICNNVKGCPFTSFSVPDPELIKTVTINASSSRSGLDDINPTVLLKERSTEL
Nature of the assay: Cell based assay, COS cells stably transfected with human COX-2, PGE2 release. As to the method: (§1) Inhibitory activity against human COX-1 and COX-2 was assessed in COS cells which had been stably transfected with cDNA for human COX-1 and human COX-2. 24 Hours prior to experiment, COS cells were transferred from the 175 cm^2 flasks in which they were grown, onto 24-well cell culture plates using the following procedure. The incubation medium (Dulbecco's modified eagles medium (DMEM) supplemented with heat-inactivated foetal calf serum (10% v/v), penicillin (100 IU/ml), streptomycin (100 μg/ml) and geneticin (600 μg/ml)) was removed from a flask of confluent cells (1 flask at confluency contains approximately 1×10^7 cells). 5 ml of phosphate buffered saline (PBS) was added to the flask to wash the cells. Having discarded the PBS, cells were then incubated with 5 ml trypsin for 5 minutes in an incubator (37°). The flask was then removed from the incubator and 5 ml of fresh incubation medium was added. The contents of the flask was transferred to a 250 ml sterile container and the volume of incubation medium subsequently made up to 100ml. 1 ml cell suspension was pipetted into each well of 4×24-well cell culture plates. The plates were then placed in an incubator (37° C., 95% air/5% CO2) overnight. If more than 1 flask of cells were required, the cells from the individual flasks were combined before being dispensed into the 24-well plates.
(§2) Following the overnight incubation, the incubation medium was completely removed from the 24-well cell culture plates and replaced with 250 μl fresh DMEM (37° C.). The test compounds were made up to 250× the required test concentration in DMSO and were added to the wells in a volume of 1 μl. Plates were then mixed gently by swirling and then placed in an incubator for 1 hour (37° C., 95% air/5% CO2). Following the incubation period, 10 μl of arachidonic acid (750 μM) was added to each well to give a final arachidonic acid concentration of 30 μM. Plates were then incubated for a further 10 minutes, after which the incubation medium was removed from each well of the plates and stored at −20° C., prior to determination of prostaglandin E2 (PGE2) levels using enzyme immunoassay. […] The selectivity ratio of inhibition of COX-1 versus COX-2 was calculated by comparing respective IC50 values.

The target of assay [2] is T2, COX-1 (Homo sapiens, UniProt P23219). Nature of the assay: Cell based assay, COS cells stably transfected with human COX-1, PGE2 release. Further details: expressed in transfected cells; host or cells: COS cells, stably transfected. As to the method:
as §1, §2

Assay [3] concerns the target T2, COX-1. Nature of the assay: Microsomal assay, COX-1. It is filed as biochemical.
The target in assay [4] is T3, microsomal h-COX2 (Homo sapiens, UniProt P35354).
T3 construct: made in house; host or cells: baculovirus infected SF9 cells (microsomal preparation)
T3 sequence (P35354 18-604): T1 sequence (P35354 18-604)
Briefly: Microsomal assay, h-COX2 microsomal preparation from baculovirus infected SF9 cells. Type of assay: biochemical. As to the method: Inhibitory activity against microsomal h-COX2 was assessed against a microsomal preparation from baculovirus infected SF9 cells. An aliquot of microsomal preparation was thawed slowly on ice and a 1/40,000 dilution prepared from it into the assay buffer (sterile water, degassed with argon containing 100 mM HEPES (pH 7.4), 10 mM EDTA (pH7.4), 1 mM phenol, 1 mM reduced glutathione, 20 mg/ml gelatin and 0.001 mM Hematin). Once diluted the enzyme solution was then sonicated for 5 seconds (Branson sonicator, setting 4, 1 cm tip) to ensure a homogeneous suspension. 155 μl enzyme solution was then added to each well of a 96-well microtitre plate containing either 5 μl test compound (40× required test concentration) or 5 μl DMSO for controls. Plates were then mixed and incubated at room temperature for 1 hour. Following the incubation period, 40 μl of 0.5 μM arachidonic acid was added to each well to give a final concentration of 0.1 μM. Plates were then mixed and incubated for exactly 10 minutes (room temperature) prior to addition of […] HCl (hydrochloric acid) to each well to stop the reaction. 25 μl of 1 M NaOH (sodium hydroxide) was then added to each well to neutralise the solution prior to determination of PGE2 levels by enzyme immunoassay (EIA).

The mark [5] stands for this setting: microsomal assay, PGE2 by EIA, 0.1 μM arachidonic acid, read-out: COX-2: IC50.

Read-outs that look alike come from different tables or passages of the source.

T2 sequence (P23219 24-599): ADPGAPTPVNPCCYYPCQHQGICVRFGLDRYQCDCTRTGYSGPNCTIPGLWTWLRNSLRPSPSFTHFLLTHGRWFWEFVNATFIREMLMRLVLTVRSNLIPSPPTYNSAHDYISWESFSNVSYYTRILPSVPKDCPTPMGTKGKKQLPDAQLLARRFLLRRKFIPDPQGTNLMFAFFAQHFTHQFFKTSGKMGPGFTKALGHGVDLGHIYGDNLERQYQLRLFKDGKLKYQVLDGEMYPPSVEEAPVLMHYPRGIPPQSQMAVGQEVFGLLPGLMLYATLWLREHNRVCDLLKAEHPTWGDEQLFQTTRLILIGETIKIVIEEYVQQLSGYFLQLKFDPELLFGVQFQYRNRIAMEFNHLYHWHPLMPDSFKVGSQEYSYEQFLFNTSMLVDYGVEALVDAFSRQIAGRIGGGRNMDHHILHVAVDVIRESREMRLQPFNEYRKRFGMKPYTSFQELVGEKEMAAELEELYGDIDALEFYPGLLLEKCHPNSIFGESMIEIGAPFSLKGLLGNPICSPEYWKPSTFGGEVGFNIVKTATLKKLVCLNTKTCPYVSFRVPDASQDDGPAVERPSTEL

What is called IC50 is the concentration that inhibits the measured activity by half. In the case of `CS(=O)(=O)c1ccc(-c2cc(C(F)(F)F)nc(Oc3ccc(F)cc3)n2)cc1` [Example 1, 2-(4-Fluorophenoxy)-4-[4-(methylsulfonyl)phenyl]-6-(trifluoromethyl)pyrimidine], the IC50 was less than 1 nM in assay [1] and 81300 nM in assay [2].
In the case of `CS(=O)(=O)c1ccc(-c2cc(C(F)(F)F)nc(Oc3ccc(F)c(F)c3)n2)cc1` [Example 2], the IC50 in assay [1] came to 23 nM; in assay [2] it was 9670 nM.
With `COc1ccc(Oc2nc(-c3ccc(S(C)(=O)=O)cc3)cc(C(F)(F)F)n2)cc1` [Example 3], the values for the IC50 in assay [1] and in assay [2] were 4 nM and 2920 nM, respectively.
Regarding `CS(=O)(=O)c1ccc(-c2cc(C(F)(F)F)nc(Oc3ccc(Br)cc3)n2)cc1` [Example 5], the IC50 in assay [1] stood at 6 nM; in assay [2], 61400 nM.
As for `Cc1ccc(Oc2nc(-c3ccc(S(C)(=O)=O)cc3)cc(C(F)(F)F)n2)cc1` [Example 6], the IC50 in assay [3] is 3750 nM; in assay [4] (setting [5]) it was less than 10 nM.
Consider `CS(=O)(=O)c1ccc(-c2cc(C(F)(F)F)nc(Oc3cncc(Cl)c3)n2)cc1` [Example 7, 2-[(5-chloropyridin-3-yl)oxy]-4-[4-(methylsulfony)phenyl]-6-(trifluoromethyl)pyrimidine], for which the results for the IC50 in assay [3] and in assay [4] (setting [5]) were 79900 nM and less than 10 nM, respectively.
Molecule `CS(=O)(=O)c1ccc(-c2cc(C(F)(F)F)nc(OC3CCCCC3)n2)cc1` [Example 8, 2-(cyclohexyloxy)-4-[4-(methylsulfonyl)phenyl]-6-(trifluoromethyl)pyrimidine] showed an IC50 in assay [3] of 1860 nM.
Consider `CS(=O)(=O)c1ccc(-c2cc(C(F)(F)F)nc(OCC3CCCC3)n2)cc1` [Example 9], for which the midpoint of inhibition in assay [4], the IC50, lay at 22 nM.
As to `CCCCOc1nc(-c2ccc(S(C)(=O)=O)cc2)cc(C(F)(F)F)n1` [Example 10, 2-Butoxy-4-[4-(methylsulfonyl)phenyl]-6-(trifluoromethyl)pyrimidine], the IC50 in assay [4] (setting [5]) was 22 nM.

The values are drawn from patent publication US7026327B2, “Pyrimidine derivatives useful as selective COX-2 inhibitors” (Glaxo Group Limited, priority 2001, dated 2006).
